Where two headings read alike, the source gives them in different places.
Test: Liquid dish neat product liquid-air partition coefficient
Type: physicochemical
[1] = class code letter within Comment Code

CCCCCCCCCCCCOC(C)=O [Material 175]
Log of liquid dish neat product liquid-air partition coefficient (Comment Code K/L) [1]: K (Log of liquid dish neat product liquid-air partition coefficient greater than or equal to −7)

CC(=O)OC(C)CC/C=C(\C)CCC=C(C)C (stereo not drawn) [Material 890]
Log of liquid dish neat product liquid-air partition coefficient (Comment Code K/L): K (Log of liquid dish neat product liquid-air partition coefficient greater than or equal to −7)

CC(=O)OC1(C)CCC(=C(C)C)CC1 (stereo not drawn) [Material 317]
Log of liquid dish neat product liquid-air partition coefficient (Comment Code K/L) [1]: K (Log of liquid dish neat product liquid-air partition coefficient greater than or equal to −7)

COCc1ccc(O)c(OC)c1 [Material 1113]
Comment Code: Log of liquid dish neat product liquid-air partition coefficient (codes K/L of the Comment Code, Table 1): K (Log of liquid dish neat product liquid-air partition coefficient greater than or equal to −7)

CC1C(C)(C)C2=C(C3OC(C)(C)OC3CC2)C1(C)C (stereo not drawn) [Material 23]
Log of liquid dish neat product liquid-air partition coefficient (Comment Code K/L) [1]: K (Log of liquid dish neat product liquid-air partition coefficient greater than or equal to −7) | Comment Code: Log of liquid dish neat product liquid-air partition coefficient (code letters K, L): K (Log of liquid dish neat product liquid-air partition coefficient greater than or equal to −7)

CCCOC(=O)[C@H](C)OC(C)(C)CC [Material 1030]
Comment Code: Log of liquid dish neat product liquid-air partition coefficient (code letters K, L): K (Log of liquid dish neat product liquid-air partition coefficient greater than or equal to −7)

CCC(=O)OC(C)c1ccccc1 (stereo not drawn) [Material 96]
Comment Code: Log of liquid dish neat product liquid-air partition coefficient (code letters K, L): K (Log of liquid dish neat product liquid-air partition coefficient greater than or equal to −7)

CC(C)=CCC=C(C)C1CC=C(C)CC1 (stereo not drawn) [Material 719]
Log of liquid dish neat product liquid-air partition coefficient (Comment Code K/L): K (Log of liquid dish neat product liquid-air partition coefficient greater than or equal to −7)

C/C(=C\C#N)CCc1ccccc1 [Material 894]
Log of liquid dish neat product liquid-air partition coefficient (Comment Code K/L): K (Log of liquid dish neat product liquid-air partition coefficient greater than or equal to −7)

C=C(OC(C)=O)c1ccccc1 [Material 931]
Comment Code: Log of liquid dish neat product liquid-air partition coefficient (code letters K, L): K (Log of liquid dish neat product liquid-air partition coefficient greater than or equal to −7)

CCOCCOCCO [Material 579]
Comment Code: Log of liquid dish neat product liquid-air partition coefficient (code letters K, L): K (Log of liquid dish neat product liquid-air partition coefficient greater than or equal to −7)

CCOC(=O)C1C2C=CC(C2)C1C(C)C (stereo not drawn) [Material 280]
Log of liquid dish neat product liquid-air partition coefficient (Comment Code K/L) [1]: K (Log of liquid dish neat product liquid-air partition coefficient greater than or equal to −7)

CCCCCCCCCCCCCC(=O)OC [Material 104]
Log of liquid dish neat product liquid-air partition coefficient (Comment Code K/L) [1]: K (Log of liquid dish neat product liquid-air partition coefficient greater than or equal to −7)

C=C(C)C1CCC2(C)CCC=C(C)C2C1 (stereo not drawn) [Material 692]
Log of liquid dish neat product liquid-air partition coefficient (Comment Code K/L): K (Log of liquid dish neat product liquid-air partition coefficient greater than or equal to −7)

COc1cc(C)cc(O)c1 [Material 811]
Comment Code: Log of liquid dish neat product liquid-air partition coefficient (code letters K, L): K (Log of liquid dish neat product liquid-air partition coefficient greater than or equal to −7)

C=CCCC(=O)c1ccccc1 [Material 792]
Log of liquid dish neat product liquid-air partition coefficient (Comment Code K/L): K (Log of liquid dish neat product liquid-air partition coefficient greater than or equal to −7)

CCCCCCCC(=O)OCCC(C)C [Material 237]
Comment Code: Log of liquid dish neat product liquid-air partition coefficient (code letters K, L): K (Log of liquid dish neat product liquid-air partition coefficient greater than or equal to −7)

C=CCOC(=O)COc1ccccc1 [Material 743]
Comment Code: Log of liquid dish neat product liquid-air partition coefficient (code letters K, L): K (Log of liquid dish neat product liquid-air partition coefficient greater than or equal to −7)

CC/C=C\CCOC(=O)c1ccccc1 [Material 541]
Log of liquid dish neat product liquid-air partition coefficient (Comment Code K/L) [1]: K (Log of liquid dish neat product liquid-air partition coefficient greater than or equal to −7)

CC(=CCCC1(C)C2CC3C(C2)C31C)CO (stereo not drawn) [Material 694]
Log of liquid dish neat product liquid-air partition coefficient (Comment Code K/L): K (Log of liquid dish neat product liquid-air partition coefficient greater than or equal to −7) | Comment Code: Log of liquid dish neat product liquid-air partition coefficient (code letters K, L): K (Log of liquid dish neat product liquid-air partition coefficient greater than or equal to −7)

Cc1cc(O)cc(C)c1Cl [Material 557]
Comment Code: Log of liquid dish neat product liquid-air partition coefficient (code letters K, L): K (Log of liquid dish neat product liquid-air partition coefficient greater than or equal to −7)

CC(C)=CCC/C(C)=C/CO [Material 1082]
Log of liquid dish neat product liquid-air partition coefficient (Comment Code K/L): K (Log of liquid dish neat product liquid-air partition coefficient greater than or equal to −7)

COc1ccc(CCC(C)=O)cc1 [Material 803]
Log of liquid dish neat product liquid-air partition coefficient (Comment Code K/L): K (Log of liquid dish neat product liquid-air partition coefficient greater than or equal to −7)

C=CCCCCCCCCC(=O)OCCCC [Material 599]
Log of liquid dish neat product liquid-air partition coefficient (Comment Code K/L): K (Log of liquid dish neat product liquid-air partition coefficient greater than or equal to −7)

c1ccc2occc2c1 [Material 493]
Log of liquid dish neat product liquid-air partition coefficient (Comment Code K/L) [1]: K (Log of liquid dish neat product liquid-air partition coefficient greater than or equal to −7)

CCCCCOC(=O)C=Cc1ccccc1 [Material 671]
Log of liquid dish neat product liquid-air partition coefficient (Comment Code K/L): K (Log of liquid dish neat product liquid-air partition coefficient greater than or equal to −7)

C=CC(C)(CCC=C(C)C)OC(C)OCC (stereo not drawn) [Material 916]
Log of liquid dish neat product liquid-air partition coefficient (Comment Code K/L): K (Log of liquid dish neat product liquid-air partition coefficient greater than or equal to −7)

CC1CCCCCCCCCCCCC(=O)C1 (stereo not drawn) [Material 79]
Log of liquid dish neat product liquid-air partition coefficient (Comment Code K/L) [1]: K (Log of liquid dish neat product liquid-air partition coefficient greater than or equal to −7)

CCOC(C)OCCc1ccccc1 (stereo not drawn) [Material 415]
Log of liquid dish neat product liquid-air partition coefficient (Comment Code K/L) [1]: K (Log of liquid dish neat product liquid-air partition coefficient greater than or equal to −7)

OCCOc1ccccc1 [Material 834]
Log of liquid dish neat product liquid-air partition coefficient (Comment Code K/L): K (Log of liquid dish neat product liquid-air partition coefficient greater than or equal to −7)

C=C(C)C1CCC2(C)CCCC(=C)C2C1 (stereo not drawn) [Material 615]
Log of liquid dish neat product liquid-air partition coefficient (Comment Code K/L): K (Log of liquid dish neat product liquid-air partition coefficient greater than or equal to −7)

CC(=O)OCCc1ccccc1 [Material 832]
Comment Code: Log of liquid dish neat product liquid-air partition coefficient (code letters K, L): K (Log of liquid dish neat product liquid-air partition coefficient greater than or equal to −7)

CC1=C2CCC(C)C2CC(C(C)(C)O)CC1 (stereo not drawn) [Material 920]
Log of liquid dish neat product liquid-air partition coefficient (Comment Code K/L): K (Log of liquid dish neat product liquid-air partition coefficient greater than or equal to −7)

CC1CCOC(c2ccccc2)C1 (stereo not drawn) [Material 420]
Comment Code: Log of liquid dish neat product liquid-air partition coefficient (code letters K, L): K (Log of liquid dish neat product liquid-air partition coefficient greater than or equal to −7)

CC(=O)OC1CC2C3C=CCC3C1C2(C)C (stereo not drawn) [Material 360]
Log of liquid dish neat product liquid-air partition coefficient (Comment Code K/L) [1]: K (Log of liquid dish neat product liquid-air partition coefficient greater than or equal to −7) | Comment Code: Log of liquid dish neat product liquid-air partition coefficient (code letters K, L): K (Log of liquid dish neat product liquid-air partition coefficient greater than or equal to −7)

CCCC(O)CCC1C(C)CCCC1(C)C (stereo not drawn) [Material 1063]
Log of liquid dish neat product liquid-air partition coefficient (Comment Code K/L): K (Log of liquid dish neat product liquid-air partition coefficient greater than or equal to −7)

Cc1cccc(CC(C)(C)CO)c1 [Material 140]
Log of liquid dish neat product liquid-air partition coefficient (Comment Code K/L) [1]: K (Log of liquid dish neat product liquid-air partition coefficient greater than or equal to −7)

CC1=CCC(CCC(C)CO)C1(C)C (stereo not drawn) [Material 600]
Log of liquid dish neat product liquid-air partition coefficient (Comment Code K/L): K (Log of liquid dish neat product liquid-air partition coefficient greater than or equal to −7)

CCOC(=O)C12CCCC1C1CCC2C1 (stereo not drawn) [Material 344]
Log of liquid dish neat product liquid-air partition coefficient (Comment Code K/L) [1]: K (Log of liquid dish neat product liquid-air partition coefficient greater than or equal to −7)

CCCCCCCC(=O)OCc1ccco1 [Material 336]
Log of liquid dish neat product liquid-air partition coefficient (Comment Code K/L) [1]: K (Log of liquid dish neat product liquid-air partition coefficient greater than or equal to −7)

CC(C)C(=O)OC1CC2CCC1(C)C2(C)C (stereo not drawn) [Material 603]
Log of liquid dish neat product liquid-air partition coefficient (Comment Code K/L): K (Log of liquid dish neat product liquid-air partition coefficient greater than or equal to −7) | Comment Code: Log of liquid dish neat product liquid-air partition coefficient (code letters K, L): K (Log of liquid dish neat product liquid-air partition coefficient greater than or equal to −7)

CC1=CCC(O)(C(C)C)CC1 (stereo not drawn) [Material 791]
Log of liquid dish neat product liquid-air partition coefficient (Comment Code K/L): K (Log of liquid dish neat product liquid-air partition coefficient greater than or equal to −7)

COc1ccc(CC(C)=O)cc1 [Material 983]
Comment Code: Log of liquid dish neat product liquid-air partition coefficient (code letters K, L): K (Log of liquid dish neat product liquid-air partition coefficient greater than or equal to −7)

C=C1CCCC(C)(C)C1C=CC(C)=O (stereo not drawn) [Material 324]
Log of liquid dish neat product liquid-air partition coefficient (Comment Code K/L) [1]: K (Log of liquid dish neat product liquid-air partition coefficient greater than or equal to −7)

CC/C=C\CCOC(=O)C/C=C\CC [Material 534]
Log of liquid dish neat product liquid-air partition coefficient (Comment Code K/L) [1]: K (Log of liquid dish neat product liquid-air partition coefficient greater than or equal to −7)

CCOC(=O)C1CCC(C(=O)OCC)CC1 (stereo not drawn) [Material 347]
Log of liquid dish neat product liquid-air partition coefficient (Comment Code K/L) [1]: K (Log of liquid dish neat product liquid-air partition coefficient greater than or equal to −7)

CC/C=C\CCC1=CCCC1=O [Material 146]
Log of liquid dish neat product liquid-air partition coefficient (Comment Code K/L) [1]: K (Log of liquid dish neat product liquid-air partition coefficient greater than or equal to −7)

CC(=O)C1CC/C(C)=C\CC/C(C)=C\C/C=C/1C (stereo not drawn) [Material 1095]
Log of liquid dish neat product liquid-air partition coefficient (Comment Code K/L): K (Log of liquid dish neat product liquid-air partition coefficient greater than or equal to −7)

C=C[C@@](C)(O)CCC=C(C)C [Material 1017]
Comment Code: Log of liquid dish neat product liquid-air partition coefficient (code letters K, L): K (Log of liquid dish neat product liquid-air partition coefficient greater than or equal to −7)

CC(=O)CCCC(C)CCCC(C)CCCC(C)C (stereo not drawn) [Material 782]
Log of liquid dish neat product liquid-air partition coefficient (Comment Code K/L): K (Log of liquid dish neat product liquid-air partition coefficient greater than or equal to −7)

Source: patent publication US20160090556A1, “PRODUCTS COMPRISING MALODOR REDUCTION MATERIALS” (The Procter & Gamble Company, priority 2014, published 2016)
